Activity calls are given as the source filed them.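 The calls were made as follows: active = compounds giving half or more protection of infected cells from virus-caused growth loss, again on retest; inactive = the rest.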 Where a SMILES comes first, the peptide text is derived from it.
Tested on: CEM cells HIV-1 protection, formazan growth assay
Test: NCI AIDS Antiviral Assay
Details: for IC50: measured here: growth of uninfected CEM cells
In short: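 Protection of CEM cells against HIV-1 was scored from cell growth (soluble formazan) across five concentrations, with parallel uninfected cells. Lack of protection may reflect toxicity.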

C=C(C)C(=O)OC1C/C(CO)=C\C(O)C/C(C)=C/C2OC(=O)C(=C)C21 (stereo not given)
EC50: > 724 µM | IC50: 12.3 µM

O=C(O)CCCCCCCc1cccc(OCCOCCO)c1
EC50: > 100 µM | IC50: > 100 µM

C[C@@]12CCC[C@@H](OC(=O)c3ccc(Br)cc3)[C@@H](C1)C(=O)CC2
outcome: inactive

CC(C)CNC(=O)Cn1c(-c2ccccc2)cc2ccccc21
EC50: > 200 µM | IC50: 195 µM

O=S(=O)(O)c1ccc2c(c1)Sc1cc(S(=O)(=O)O)ccc1O2
outcome: inactive

Cc1c(Cc2ccccc2)n(C(C)OCCN(OC(=O)Oc2ccccc2)C(=O)Oc2ccccc2)c(=O)[nH]c1=O (stereo not given)
EC50: > 200 µM | IC50: 53.7 µM

Cc1cccc(N=Cc2ccc(N(CCC#N)S(=O)(=O)c3ccccc3)cc2C)c1
EC50: > 224 µM | IC50: 145 µM

c1ccc(COCC2OC3c4ccccc4COC3C2OCc2ccccc2)cc1 (stereo not given)
outcome: inactive

CC1COB(c2ccccc2)OCC(C)N1CNC(=O)C1=C(O)C2(O)C(O)=C3C(=O)C4C(O)=CC=CC4C(C)(O)C3CC2C(N(C)C)C1=O (stereo not given)
EC50: 15.1 µM | IC50: 19.5 µM

OCc1ccc2[n+](c1)CCC1c3ccccc3NC21 (stereo not given)
EC50: > 77.6 µM | IC50: > 77.6 µM

NCC=C1C2CC3CC(C2)CC1C3
outcome: inactive

O=C1C[C@@H]2[C@@H](CCC23CC3)N1
EC50: > 1660 µM | IC50: > 1660 µM

CC(=O)NC(CCCCN(Cc1ccccc1)C(=O)N(C)N=O)C(=O)NCc1ccccc1 (stereo not given)
EC50: > 110 µM | IC50: 93.3 µM

CCCC(=O)OCC1(Cl)CCC2c3c(c4ccccc4n3C)CC1N2Cc1ccccc1 (stereo not given)
EC50: > 11.5 µM | IC50: 6.92 µM

O=c1c2cc(-c3ccccc3)sc2nc2n1N=C(c1ccccc1)CS2
EC50: > 200 µM | IC50: > 200 µM

O=c1[nH]c2ccccc2nc1/C=C/NC(=S)NCc1ccccc1
outcome: inactive

CC1=CC2C(C=C1)S(=O)(=O)N1CC21c1ccccc1 (stereo not given)
outcome: inactive

O=C(CSc1nnc(Cc2ccccc2)o1)Nc1ccc([N+](=O)[O-])cc1
EC50: > 97.7 µM | IC50: 95.5 µM

COc1cc(/C=C2\N=C(C)N(n3c(-c4ccccc4)nc4ccccc4c3=O)C2=O)cc(OC)c1OC
EC50: > 200 µM | IC50: 38.9 µM

O=c1cc2c(=O)oc3cc(O)c(O)oc3c2c(O)c1O
EC50: > 324 µM | IC50: 13.8 µM

O=C1C(Cl)C(c2ccc([N+](=O)[O-])cc2)N1n1cnc2ccccc2c1=O (stereo not given)
EC50: > 7.41 µM | IC50: > 7.41 µM

O=C(CCCN1CCC(C(=O)c2ccc(F)cc2)CC1)c1ccc(F)cc1
EC50: > 24.5 µM | IC50: > 24.5 µM

CC(C)C(C=O)C(O)(C(F)(F)F)C(F)(F)F (stereo not given)
EC50: > 200 µM | IC50: > 200 µM

NC(CSS(=O)(=O)O)=NC1CC1
EC50: > 200 µM | IC50: > 200 µM

O=C(CNc1cccc([N+](=O)[O-])c1)Nn1c(-c2ccccc2)nc2ccccc2c1=O
EC50: > 20 µM | IC50: 1.05 µM

COC(=O)C1=C(C(=O)OC)SC2(S1)C(C(=O)OC)=C(C(=O)OC)Sc1c2ssc1=O
EC50: > 0.2 µM | IC50: 0.0575 µM

O=c1[nH]c2cc(F)c(F)cc2nc1Cc1ccccc1
EC50: > 200 µM | IC50: 132 µM

S=C1NC2(CCCCCC2)NN1c1ccccc1
EC50: > 100 µM | IC50: 30.9 µM

Nc1nc2ccccc2n1CC(=O)NC12CC3CC(CC(C3)C1)C2
EC50: > 79.4 µM | IC50: 36.3 µM

Cc1cccc2c1Oc1ncccc1C2NC(=O)CN(C)C (stereo not given)
EC50: > 200 µM | IC50: > 200 µM

O=P(O)(O)OC1C(OP(=O)(O)O)C(OP(=O)(O)O)C(OP(=O)(O)O)C(OP(=O)(O)O)C1OP(=O)(O)O.[Zn+2] (stereo not given)
EC50: > 100 µM | IC50: > 100 µM

Cc1sc(N=Nc2c(O)[nH]c3ccccc23)nc1-c1ccccc1
EC50: > 200 µM | IC50: 43.7 µM

COc1ccc(C2c3cc4c(cc3OC(N3CCOCC3)C2C)OCO4)cc1 (stereo not given)
EC50: > 200 µM | IC50: 53.7 µM

Cc1cc(S(=O)(=O)Nc2nnc3c4scc(C)c4ncn23)c(S)cc1Cl
EC50: 45.7 µM | IC50: 50.1 µM

CCCCNC1CCCCC[C@H]1O (stereo not given in full)
EC50: > 1120 µM | IC50: > 1120 µM

N#Cc1ccc(/C=C2\CCc3ccccc3C2=O)cc1
EC50: > 20 µM | IC50: > 20 µM

NC1=NS(=O)(=O)Nc2nc(-c3ccc(Cl)cc3)[nH]c21
EC50: > 200 µM | IC50: > 200 µM

O=S(Cc1ccc2c(c1)OCO2)c1ccccc1 (stereo not given)
EC50: > 955 µM | IC50: 661 µM

Cc1noc2c1C(=O)CCC2
EC50: > 1660 µM | IC50: 148 µM

COc1cc(C[C@H]2COC(=O)[C@]2(O)Cc2ccc(O)c(OC)c2)ccc1O
EC50: 1.35 µM | IC50: 4.79 µM

O=S(=O)(O)CCNC(=S)C(=S)NCCS(=O)(=O)O
outcome: inactive

O=Nc1ccccc1
EC50: > 200 µM | IC50: > 200 µM

O=c1c(OC2OC(CO)C(O)C(O)C2OC2OCC(O)(CO)C2O)c(-c2ccc(O)cc2)oc2cc(O)cc(O)c12 (stereo not given)
EC50: > 42.7 µM | IC50: > 42.7 µM

CC(=O)CCCCn1c(=O)c2c(nc(Br)n2C)n(C)c1=O
EC50: > 200 µM | IC50: 52.5 µM

NC(CNC(=O)CBr)C(=O)O (stereo not given)
EC50: > 813 µM | IC50: 155 µM

CCOc1ccc(Nc2nc(N)nc(N)c2N)cc1
EC50: > 200 µM | IC50: 66.1 µM

COc1ccc(/C=C/C(=O)N[C@@H]2CCN3CCCC23)cc1 (stereo not given in full)
outcome: inactive

O=C1N=C2Sc3ccc4ccccc4c3N2C1=O
EC50: > 355 µM | IC50: 182 µM

COc1ccc2c(c1)C(=O)N1CCOC1C2C(=O)O (stereo not given)
EC50: > 955 µM | IC50: > 955 µM

CCCCN(CCCC)NC(=S)Nc1ccccc1
EC50: > 35.5 µM | IC50: > 35.5 µM

C=C1C(OC(=O)C(O)C(c2ccccc2)N(C)C)CC(OC(C)=O)[C@]2(C)C1C[C@@H]1CC(=O)C(C)=C([C@@H](OC(C)=O)C2OC(C)=O)C1(C)C (stereo not given in full)
EC50: > 93.3 µM | IC50: > 93.3 µM

O=c1n(-c2ccccc2)c(=O)n2n1C1CCC2CC1
EC50: > 200 µM | IC50: > 200 µM

O=C(/C=C/c1ccccc1Cl)c1ccc(Cl)c(Cl)c1
EC50: > 8.71 µM | IC50: > 8.71 µM

CC(C)(C)[Si](C)(C)OCC1CCC(n2cnc3c(NC(=O)c4ccccc4)ncnc32)O1 (stereo not given)
outcome: inactive

COC1C=CC23c4cc5c(cc4C(O)OC2CN(C)C3C1)OCO5 (stereo not given)
EC50: > 200 µM | IC50: 0.891 µM

Cc1ccc(S(=O)(=O)N/N=C\c2c3ccccc3[n+](C)c3ccccc23)cc1
outcome: inactive

Cc1c(N=Nc2ccc(Cl)cc2)c(-c2ccccc2)n(C2OC(CO)C(O)C(O)C2O)c(=S)c1C#N (stereo not given)
EC50: > 200 µM | IC50: 37.2 µM

O=C1CC2(C(=O)O1)C1C(=O)OC(=O)C1C1C=CC=NN12 (stereo not given)
EC50: > 200 µM | IC50: > 200 µM

COc1ccc(C(=O)C2CC3(CCC2(O)c2ccc(OC)cc2)CC(=O)Nc2ccccc2C3=O)cc1 (stereo not given)
EC50: > 200 µM | IC50: 72.4 µM

Cc1cccc2c(=O)c3ccccc3oc12
EC50: > 170 µM | IC50: > 170 µM

O=C(NCCCCCCCCNC(=O)c1cc(O)c(O)c(O)c1)c1cc(O)c(O)c(O)c1
EC50: > 100 µM | IC50: 13.8 µM

CC(=O)OCC1OC(N2C(=O)[C@@H](Oc3ccccc3)[C@H]2c2ccccc2)C(OC(C)=O)C(OC(C)=O)C1OC(C)=O (stereo not given in full)
EC50: > 200 µM | IC50: 174 µM

Cc1cccc(C)c1NC(=O)CCCC(=O)C(C#N)c1ccccc1 (stereo not given)
EC50: > 741 µM | IC50: > 741 µM

O=c1/c(=C\c2ccc(Cl)c(Cl)c2)sc2n1CCN=2
EC50: > 200 µM | IC50: > 200 µM

COc1ccc2nc3ccc(OC)cc3c(S(=O)Cc3ccccc3)c2c1 (stereo not given)
EC50: > 200 µM | IC50: 1.23 µM

CCOc1ccccc1N1C(=O)C(=O)C(c2nc3ccccc3o2)/C(=N\N)C1=O (stereo not given)
outcome: inactive

CCO/C=N/C1=C(C#N)C(c2ccc(OC)c(OC)c2)c2c(-c3ccccc3)nn(-c3ccccc3)c2O1 (stereo not given)
EC50: > 100 µM | IC50: 14.1 µM

CC(=O)Oc1ccc2c(c1)c1c(=O)oc(N(C)C)nc1n2Cc1ccccc1
EC50: > 200 µM | IC50: 120 µM

O=C(O)c1ccccc1C(=O)c1ccc(O)cc1
EC50: > 200 µM | IC50: > 200 µM

Clc1cc(Cl)c2nncc(N3CC3)c2c1
outcome: inactive

Cc1cn(C2CC(O[Si](C)(C)C(C)(C)C)C(/C=N\O)O2)c(=O)[nH]c1=O (stereo not given)
EC50: > 200 µM | IC50: > 200 µM

COc1ccc2c(-c3ccc(OCCN(C)C)cc3)c(Oc3ccc(Cl)cc3)c(=O)oc2c1
EC50: > 200 µM | IC50: 5.89 µM

CCOC1N=C(c2ccccc2)c2cc(Cl)ccc2NC1=O (stereo not given)
EC50: > 22.9 µM | IC50: > 22.9 µM

O=C(C=C1SCCS1)/C=C\c1ccc(Cl)cc1
EC50: > 35.5 µM | IC50: > 35.5 µM

COc1ccc(N(C(=O)NCCO)c2ccccc2)cc1
EC50: > 200 µM | IC50: > 200 µM

COC(=O)C(=O)C(C(=O)C(=O)Nc1ccc(C)cc1C)c1nc2ccc(Cl)cc2[nH]c1=O (stereo not given)
EC50: > 57.5 µM | IC50: 47.9 µM

COc1ccc(S(=O)(=O)N(C)CC(=O)O)cc1
outcome: inactive

CCCCCCCCCCCCCC(=O)NO
EC50: > 20.4 µM | IC50: > 20.4 µM

N#C/C(=C\c1cccc(Cl)c1Cl)c1ccccc1
EC50: > 24.5 µM | IC50: > 24.5 µM

CC1(C)N=[N+]([O-])C1(C)C
EC50: > 200 µM | IC50: > 200 µM

C1CCN2CC3CONC3C2C1 (stereo not given)
EC50: > 1480 µM | IC50: > 1480 µM

CN(C)CCSc1cc(-c2ccccc2)c2ccccc2n1
EC50: > 200 µM | IC50: 6.31 µM

C#CCCOC1(OC)N=NC(C)(C)O1 (stereo not given)
EC50: > 200 µM | IC50: > 200 µM

CC(C)N1CCOC12CCCC2
EC50: > 200 µM | IC50: 29.5 µM

COc1ccccc1N1CCN(Cn2c(=O)oc3cccnc32)CC1
EC50: > 200 µM | IC50: 60.3 µM

O=C(O)[C@@H](NS(=O)(=O)c1ccc(F)cc1)c1ccccc1
outcome: inactive

CCOC(=O)C(=O)Nc1ccccc1C(F)(F)F
EC50: > 363 µM | IC50: > 363 µM

CC(=O)NC(CO)C(=O)NC(Cc1ccc(O)cc1)C(=O)NCC(N)=O (stereo not drawn) (Ac-Ser-Tyr-Gly-NH2; configuration not given here)
EC50: > 200 µM | IC50: > 200 µM

[N-]=[N+]=Nc1c(Cl)c(=O)n(-c2ccccc2)c2ccccc12
EC50: > 200 µM | IC50: 29.5 µM

CC(C)c1cc(=O)[nH]c2cc(N)ccc12
EC50: > 200 µM | IC50: > 200 µM

CC(=O)NC1=C(C)C(=O)c2c(nc3n2CCC3OC(=O)CCl)C1=O (stereo not given)
EC50: > 200 µM | IC50: 1.48 µM

Cc1c(Cc2ccccc2)n(C(C)OCCN(O)C(N)=O)c(=O)[nH]c1=O (stereo not given)
EC50: > 200 µM | IC50: > 200 µM

From PubChem BioAssay AID179 (DTP/NCI, 2004)
